Where “and” joins values, the source holds several entries; their conditions need not be identical. Identical values can stand only once.

This assay addresses T1, recombinant human GST-Syk (Homo sapiens, UniProt P43405).
T1 construct: purchased Carna Biosciences 08-176
In words: Homogeneous Time-Resolved Fluorescence (HTRF) assay for the recombinant human Syk enzyme. Type of assay: biochemical. The note with it: recombinant human GST-Syk 5 pM, ATP 25 μM, 10-dose titration 10 μM to 0.508 nM; read-out: rhSYK Activity IC50. The essentials: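 GST-hSyk fusion protein phosphorylated a peptide for 45 min at room temperature. The reaction was quenched with 2 nM Eu-anti-phosphotyrosine antibody and 70 nM SA-APC in 15 mM Tris pH 7.5, 40 mM EDTA, 0.01% Tween 20. The HTRF signal was read after 30 min.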
(In general: TR-FRET usually uses a lanthanide donor and a delayed reading to cut background.)
Broadly, the IC50 is the midpoint of a concentration-inhibition curve. Consider `Cc1cc(Nc2cc(C(F)(F)F)ccn2)nc(-c2cn(CC3(O)CCS(=O)(=O)CC3)nn2)c1` [Example 4.29, 4-{[4-(4-methyl-6-{[4-(trifluoromethyl)pyridin-2-yl]amino}pyridin-2-yl)-1H-1,2,3-triazol-1-yl]methyl}tetrahydro-2H-thiopyran-4-ol 1,1-dioxide], for which the IC50 was determined as 8.2 nM.

For `Cc1cc(Nc2cc(C(F)(F)F)ccn2)nc(-c2cn(C3CCC(C(=O)O)CC3)nn2)c1` (mixture of isomers) [Example 5.46, 4-[4-(4-methyl-6-{[4-(trifluoromethyl)pyridin-2-yl]amino}pyridin-2-yl)-1H-1,2,3-triazol-1-yl]cyclohexane-carboxylic acid], the IC50 worked out at 4.9 nM.

In the case of `Cc1cc(Nc2nccc(C(F)F)n2)cc(-c2cn(C3CCCC(C)(O)C3O)nn2)c1` (single isomer, unassigned) [Example 29.2, 3-(4-(3-((4-(Difluoromethyl)pyrimidin-2-yl)amino)-5-methylphenyl)-1H-1,2,3-triazol-1-yl)-1-methylcyclohexane-1,2-diol], the IC50 worked out at 30.7 nM.

As for `Cc1ccnc(Nc2cc(C)cc(-c3cn(C[C@@H](C)CO)nn3)n2)c1` [Example 5.15, (2R)-2-methyl-3-(4-{4-methyl-6-[(4-methylpyridin-2-yl)amino]pyridin-2-yl}-1H-1,2,3-triazol-1-yl)propan-1-ol], the IC50 came to 240 nM.

As for `Cc1cc(Nc2cc(C(F)(F)F)ccn2)nc(-c2cn(CC(O)Cn3cccn3)nn2)c1` (stereo not drawn) [Example 4.28, 1-[4-(4-methyl-6-{[4-(trifluoromethyl)pyridin-2-yl]amino}pyridin-2-yl)-1H-1,2,3-triazol-1-yl]-3-(1H-pyrazol-1-yl)propan-2-ol], the IC50 came out at 6.6 nM.

As to `Cc1cc(Nc2cc(C(F)(F)F)ccn2)nc(-c2cn(CC(O)C(=O)O)nn2)c1` (stereo not drawn) [Example 14, 2-Hydroxy-3-(4-(4-methyl-6-((4-(trifluoromethyl)pyridin-2-yl)amino)pyridin-2-yl)-1H-1,2,3-triazol-1-yl)propanoic acid], the IC50 was 44.9 nM.

As to `Cc1cc(Nc2nccc(C(F)(F)F)n2)cc(-n2cc([C@]3(O)CC[C@@H](O)CC3)nn2)c1` [Example 15.17, cis-1-[1-(3-methyl-5-{[4-(trifluoromethyl)pyrimidin-2-yl]amino}phenyl)-1H-1,2,3-triazol-4-yl]cyclohexane-1,4-diol], the IC50 turned out to be 30 nM.

Take `Cc1cc(Nc2cc(C(F)(F)F)ccn2)nc(-c2cn(C[C@H](C)CO)nn2)c1` [Example 5.82, (2S)-2-methyl-3-[4-(4-methyl-6-{[4-(trifluoromethyl)pyridin-2-yl]amino}pyridin-2-yl)-1H-1,2,3-triazol-1-yl]propan-1-ol]: the IC50 was 7.9 nM.

Take `Cc1cc(Nc2nccc(C(F)F)n2)cc(-c2cn(C(C)C(C)(O)CO)nn2)c1` (single isomer, unassigned) [Example 30.1, 3-(4-(3-((4-(Difluoromethyl)pyrimidin-2-yl)amino)-5-methylphenyl)-1H-1,2,3-triazol-1-yl)-2-methylbutane-1,2-diol]: the IC50 came to 12.4 nM.

Take `Cc1cc(Nc2cc(C(F)F)ccn2)nc(-c2cn(C(C)C3CNC(=O)O3)nn2)c1` (single isomer, unassigned) [Example 7.11, 5-(1-(4-(6-((4-(difluoromethyl)pyridin-2-yl)amino)-4-methylpyridin-2-yl)-1H-1,2,3-triazol-1-yl)ethyl)oxazolidin-2-one]: the half-inhibitory concentration (IC50) came to 1.4 nM.

Consider `Cc1cc(Nc2nccc(C(F)(F)F)n2)cc(-c2cn(C(C)C(O)CC#N)nn2)c1` (single isomer, unassigned) [Example 4.9, 3-hydroxy-4-[4-(3-methyl-5-{[4-(trifluoromethyl)pyrimidin-2-yl]amino}phenyl)-1H-1,2,3-triazol-1-yl]pentanenitrile], for which the IC50 stood at 25.2 nM.

As for `Cc1cc(Nc2nccc(C(F)F)n2)cc(-c2cn(CC3CNC(=O)C3)nn2)c1` (single isomer, unassigned) [Example 28.2, 4-((4-(3-((4-(difluoromethyl)pyrimidin-2-yl)amino)-5-methylphenyl)-1H-1,2,3-triazol-1-yl)methyl)pyrrolidin-2-one], the IC50 amounted to 5.4 nM.

Consider `Cc1cc(Nc2cc(C(F)(F)F)ccn2)nc(-c2cn(C[C@H](O)CC#N)nn2)c1` [Example 5.44, (3R)-3-hydroxy-4-[4-(4-methyl-6-{[4-(trifluoromethyl)pyridin-2-yl]amino}pyridin-2-yl)-1H-1,2,3-thiazol-1-yl]butanenitrile], for which the IC50 is 4.1 nM and 3.18 nM.

Take `Cc1cc(Nc2cc(C(F)(F)F)ccn2)nc(-c2cn(CC(O)CF)nn2)c1` (racemic) [Example 5.93, 1-fluoro-3-[4-(4-methyl-6-{[4-(trifluoromethyl)pyridin-2-yl]amino}pyridin-2-yl)-1H-1,2,3-triazol-1-yl]propan-2-ol]: the IC50 worked out at 6 nM.

With `COc1cc2c(cc1OC)CN(C(=O)C(C)n1cc(-c3cc(C)cc(Nc4cc(C(F)(F)F)ccn4)n3)nn1)C(C)C2` (stereo not drawn) [Example 1.34, 6-{1-[2-(6,7-dimethoxy-3-methyl-3,4-dihydroisoquinolin-2(1H)-yl)-1-methyl-2-oxoethyl]-1H-1,2,3-triazol-4-yl}-4-methyl-N-[4-(trifluoromethyl)pyridin-2-yl]pyridin-2-amine], the IC50 was found to be 2700 nM.

As for `COC(=O)CNC(=O)[C@@H](C)n1cc(-c2cc(C)cc(Nc3cc(C(F)(F)F)ccn3)n2)nn1` [Example 1.57, methyl N-{(2R)-2-[4-(4-methyl-6-{[4-(trifluoromethyl)pyridin-2-yl]amino}pyridin-2-yl)-1H-1,2,3-triazol-1-yl]propanoyl}glycinate], the IC50 turned out to be 92.8 nM.

`Cc1cc(Nc2cc(C3CC3)ccn2)nc(-c2cn(C(C)c3ccc(C(=O)O)cc3)nn2)c1` (stereo not drawn) [Example 2.11, 4-[1-(4-{6-[(4-cyclopropylpyridin-2-yl)amino]-4-methylpyridin-2-yl}-1H-1,2,3-triazol-1-yl)ethyl]benzoic acid]: the IC50 is 6.4 nM.

For `Cc1cc(Nc2cc(C(F)(F)F)ccn2)nc(-c2cn(C[C@@H](C)CO)nn2)c1` [Example 5.81, (2R)-2-methyl-3-[4-(4-methyl-6-{[4-(trifluoromethyl)pyridin-2-yl]amino}pyridin-2-yl)-1H-1,2,3-triazol-1-yl]propan-1-ol], the half-maximal inhibitory concentration (IC50) stood at 6.9 nM.

As for `Cc1cc(Nc2nccc(C(F)(F)F)n2)cc(-c2cn(CC3(O)CCC(C(=O)O)C(C)(C)C3)nn2)c1` (stereo not drawn) [Example 3.4, 4-hydroxy-2,2-dimethyl-4-{[4-(3-methyl-5-{[4-(trifluoromethyl)pyrimidin-2-yl]amino}phenyl)-1H-1,2,3-triazol-1-yl]methyl}cyclohexanecarboxylic acid], the IC50 was found to be 81.4 nM.

In the case of `Cc1cc(Nc2nccc(C(F)(F)F)n2)cc(-c2cn(CC#N)nn2)c1` [Example 5.78, [4-(3-methyl-5-{[4-(trifluoromethyl)pyrimidin-2-yl]amino}phenyl)-1H-1,2,3-triazol-1-yl]acetonitrile], the IC50 stood at 84.1 nM.

As for `Cc1cc(Nc2cc(C(F)(F)F)ccn2)nc(-c2cn(C3CCC(C(=O)O)C(C)(C)C3)nn2)c1` (single isomer, unassigned) [Example 3.9, 2,2-dimethyl-4-[4-(4-methyl-6-{[4-(trifluoromethyl)pyridin-2-yl]amino}pyridin-2-yl)-1H-1,2,3-triazol-1-yl]cyclohexanecarboxylic acid], the IC50 worked out at 3 nM.
